Holding throughout (assay): radiometric filter-binding kinase assay
The target in experiment [1] is PRKCG (human) (UniProt P05129). The settings on record: compound 1.0 µM; ATP 5 µM.
Experiment [2] deals with PHKG1 or PHKG2 (human) (UniProt P15735+Q16816). The settings on record: compound 1.0 µM; ATP 50 µM.
Experiment [3] concerns the target PAK7 (human) (UniProt Q9P286). The note with it: compound 1.0 µM; ATP 20 µM.
Experiment [4] has as its target MAPK11 (human) (UniProt Q15759). The settings on record: compound 1.0 µM; ATP 20 µM.
Experiment [5] concerns the target CSNK2A1 or CSNK2A2 (human) (UniProt P19784+P68400). The settings on record: compound 1.0 µM; ATP 5 µM.
For experiment [6], the target named is PDPK1 (human) (UniProt O15530). The note with it: compound 1.0 µM.
In experiment [7] the target is MAPK9 (human) (UniProt P45984). The note with it: compound 25.0 µM; ATP 20 µM.
Experiment [8] deals with MAPK14 (human) (UniProt Q16539). The settings on record: compound 10.0 µM; ATP 50 µM.
The target of experiment [9] is SRC (chicken). The note with it: ATP 50 µM, accession and sequence are those of the human protein.
The target in experiment [10] is CSNK1D (human) (UniProt P48730). The note with it: compound 1.0 µM; ATP 20 µM.
For experiment [11], the system named is AKT1 (human), P31749 [S473D]. The note with it: compound 10.0 µM; ATP 5 µM.
Experiment [12] has as its target PKN2 (human) (UniProt Q16513). The settings on record: compound 10.0 µM; ATP 5 µM.

Drawing on the kinase profiling compilation of Christmann-Franck et al. (2016), this text covers residual activity and IC50 for 7 compounds.

The term residual activity denotes the signal under treatment as a percentage of the control signal. A word on the IC50: it is the point on the concentration scale where inhibition reaches its midpoint. High values mean weaker potency, low ones greater potency.

PDPK1 (human), sequence (O15530 whole entry, looked up): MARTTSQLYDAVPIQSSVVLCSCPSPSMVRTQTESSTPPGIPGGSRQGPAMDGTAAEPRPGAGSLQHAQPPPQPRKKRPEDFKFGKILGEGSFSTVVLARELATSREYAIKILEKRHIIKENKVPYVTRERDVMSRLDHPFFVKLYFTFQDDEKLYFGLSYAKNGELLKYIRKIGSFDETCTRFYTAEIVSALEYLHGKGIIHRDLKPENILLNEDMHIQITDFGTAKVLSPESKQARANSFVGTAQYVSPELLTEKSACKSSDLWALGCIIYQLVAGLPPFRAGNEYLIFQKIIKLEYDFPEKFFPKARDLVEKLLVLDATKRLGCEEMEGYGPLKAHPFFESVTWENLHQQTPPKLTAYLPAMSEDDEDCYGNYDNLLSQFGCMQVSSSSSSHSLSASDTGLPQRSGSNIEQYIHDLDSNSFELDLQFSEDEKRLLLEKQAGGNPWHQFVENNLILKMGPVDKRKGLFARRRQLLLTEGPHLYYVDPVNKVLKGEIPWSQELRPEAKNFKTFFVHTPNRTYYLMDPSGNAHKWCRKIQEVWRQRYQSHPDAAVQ
MAPK11 (human), sequence (Q15759 whole entry, looked up): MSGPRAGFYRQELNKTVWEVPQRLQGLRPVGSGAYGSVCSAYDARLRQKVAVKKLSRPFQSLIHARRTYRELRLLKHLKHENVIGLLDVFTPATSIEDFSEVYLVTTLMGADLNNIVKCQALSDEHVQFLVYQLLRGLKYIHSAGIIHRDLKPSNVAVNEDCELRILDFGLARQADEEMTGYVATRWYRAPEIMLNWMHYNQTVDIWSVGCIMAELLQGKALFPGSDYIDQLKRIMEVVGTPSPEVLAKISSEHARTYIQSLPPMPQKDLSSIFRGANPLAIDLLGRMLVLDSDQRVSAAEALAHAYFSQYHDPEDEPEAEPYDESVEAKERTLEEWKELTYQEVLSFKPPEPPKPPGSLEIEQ
MAPK9 (human), sequence (P45984 whole entry, looked up): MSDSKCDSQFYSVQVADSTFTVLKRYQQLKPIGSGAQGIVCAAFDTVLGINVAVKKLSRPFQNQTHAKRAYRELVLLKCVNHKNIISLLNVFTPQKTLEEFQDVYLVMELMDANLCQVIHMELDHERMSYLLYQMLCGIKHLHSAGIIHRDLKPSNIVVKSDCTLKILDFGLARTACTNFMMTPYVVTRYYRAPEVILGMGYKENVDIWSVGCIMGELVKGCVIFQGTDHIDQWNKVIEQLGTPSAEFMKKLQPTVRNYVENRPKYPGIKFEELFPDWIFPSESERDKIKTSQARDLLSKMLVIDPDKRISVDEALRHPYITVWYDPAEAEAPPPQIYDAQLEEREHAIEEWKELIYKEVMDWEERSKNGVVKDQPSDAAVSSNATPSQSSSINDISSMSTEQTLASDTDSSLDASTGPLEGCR
CSNK1D (human), sequence (P48730 whole entry, looked up): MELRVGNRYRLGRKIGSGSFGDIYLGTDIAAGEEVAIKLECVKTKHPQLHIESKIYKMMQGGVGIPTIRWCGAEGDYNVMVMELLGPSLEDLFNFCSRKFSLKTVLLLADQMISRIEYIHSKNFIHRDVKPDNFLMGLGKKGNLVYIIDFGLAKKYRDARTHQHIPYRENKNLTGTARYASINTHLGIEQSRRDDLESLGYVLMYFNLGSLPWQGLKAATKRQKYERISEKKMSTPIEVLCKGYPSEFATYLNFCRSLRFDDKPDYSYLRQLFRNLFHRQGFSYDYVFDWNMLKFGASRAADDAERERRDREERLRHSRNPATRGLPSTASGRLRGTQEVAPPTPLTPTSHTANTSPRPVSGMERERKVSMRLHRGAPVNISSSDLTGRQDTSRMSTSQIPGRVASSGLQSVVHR
PKN2 (human), sequence (Q16513 whole entry, looked up): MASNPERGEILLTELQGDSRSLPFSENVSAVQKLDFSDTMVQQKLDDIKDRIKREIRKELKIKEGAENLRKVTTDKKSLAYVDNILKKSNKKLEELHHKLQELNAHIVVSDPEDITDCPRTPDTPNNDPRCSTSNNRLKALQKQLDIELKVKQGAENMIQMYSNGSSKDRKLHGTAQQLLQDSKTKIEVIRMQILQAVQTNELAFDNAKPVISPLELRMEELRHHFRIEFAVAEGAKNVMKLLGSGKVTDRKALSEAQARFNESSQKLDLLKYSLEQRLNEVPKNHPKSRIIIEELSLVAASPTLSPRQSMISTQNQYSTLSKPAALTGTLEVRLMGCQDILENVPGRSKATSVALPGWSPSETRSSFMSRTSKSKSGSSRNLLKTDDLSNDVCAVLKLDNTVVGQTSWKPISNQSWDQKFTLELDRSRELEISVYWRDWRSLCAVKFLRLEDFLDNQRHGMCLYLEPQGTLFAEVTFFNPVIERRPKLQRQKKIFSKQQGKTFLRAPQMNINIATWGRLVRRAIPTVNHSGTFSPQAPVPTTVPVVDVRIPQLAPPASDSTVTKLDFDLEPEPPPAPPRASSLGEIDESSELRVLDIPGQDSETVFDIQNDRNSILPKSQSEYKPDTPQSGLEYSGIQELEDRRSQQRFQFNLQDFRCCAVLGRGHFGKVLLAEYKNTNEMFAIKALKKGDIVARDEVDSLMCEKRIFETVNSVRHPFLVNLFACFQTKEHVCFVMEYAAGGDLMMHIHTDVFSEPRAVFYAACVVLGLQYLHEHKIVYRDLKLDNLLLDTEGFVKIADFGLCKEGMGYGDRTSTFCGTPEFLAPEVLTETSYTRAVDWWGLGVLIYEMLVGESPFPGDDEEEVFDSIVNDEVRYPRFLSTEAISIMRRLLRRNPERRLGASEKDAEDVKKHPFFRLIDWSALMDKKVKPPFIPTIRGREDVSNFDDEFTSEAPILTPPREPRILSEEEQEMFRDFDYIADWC
PAK7 (human), sequence (Q9P286 whole entry, looked up): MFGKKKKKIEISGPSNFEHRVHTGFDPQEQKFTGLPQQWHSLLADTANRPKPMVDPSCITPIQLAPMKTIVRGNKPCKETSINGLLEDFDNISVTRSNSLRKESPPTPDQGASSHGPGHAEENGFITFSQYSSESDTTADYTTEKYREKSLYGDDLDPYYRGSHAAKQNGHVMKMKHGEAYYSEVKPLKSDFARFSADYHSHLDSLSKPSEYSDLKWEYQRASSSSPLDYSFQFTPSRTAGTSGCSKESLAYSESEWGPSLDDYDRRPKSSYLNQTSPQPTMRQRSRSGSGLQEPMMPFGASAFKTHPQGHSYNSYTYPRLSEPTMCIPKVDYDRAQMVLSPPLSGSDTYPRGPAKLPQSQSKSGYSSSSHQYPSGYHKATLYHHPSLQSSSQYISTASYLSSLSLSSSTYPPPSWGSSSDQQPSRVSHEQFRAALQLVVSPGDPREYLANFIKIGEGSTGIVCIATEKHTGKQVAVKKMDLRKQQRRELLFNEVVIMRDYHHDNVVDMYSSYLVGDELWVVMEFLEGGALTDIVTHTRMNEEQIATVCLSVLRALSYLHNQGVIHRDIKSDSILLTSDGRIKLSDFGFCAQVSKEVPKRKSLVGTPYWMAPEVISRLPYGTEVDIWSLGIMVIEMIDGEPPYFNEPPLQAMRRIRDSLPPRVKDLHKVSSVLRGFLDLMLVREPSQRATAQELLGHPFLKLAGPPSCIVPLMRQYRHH
PHKG1 or PHKG2 (human), sequence (P15735 whole entry, looked up): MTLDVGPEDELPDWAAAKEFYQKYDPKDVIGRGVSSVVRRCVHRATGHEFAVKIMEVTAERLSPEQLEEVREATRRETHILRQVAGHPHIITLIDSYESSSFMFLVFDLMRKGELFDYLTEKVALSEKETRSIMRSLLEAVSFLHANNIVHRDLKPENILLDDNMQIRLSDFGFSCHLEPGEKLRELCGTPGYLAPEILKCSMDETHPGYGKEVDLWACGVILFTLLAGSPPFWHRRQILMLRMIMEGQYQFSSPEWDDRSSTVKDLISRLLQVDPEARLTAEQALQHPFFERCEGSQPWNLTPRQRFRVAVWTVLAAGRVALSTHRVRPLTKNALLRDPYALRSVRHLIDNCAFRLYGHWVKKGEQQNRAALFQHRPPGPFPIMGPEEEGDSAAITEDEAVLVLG
PHKG1 or PHKG2 (human), sequence (Q16816 whole entry, looked up): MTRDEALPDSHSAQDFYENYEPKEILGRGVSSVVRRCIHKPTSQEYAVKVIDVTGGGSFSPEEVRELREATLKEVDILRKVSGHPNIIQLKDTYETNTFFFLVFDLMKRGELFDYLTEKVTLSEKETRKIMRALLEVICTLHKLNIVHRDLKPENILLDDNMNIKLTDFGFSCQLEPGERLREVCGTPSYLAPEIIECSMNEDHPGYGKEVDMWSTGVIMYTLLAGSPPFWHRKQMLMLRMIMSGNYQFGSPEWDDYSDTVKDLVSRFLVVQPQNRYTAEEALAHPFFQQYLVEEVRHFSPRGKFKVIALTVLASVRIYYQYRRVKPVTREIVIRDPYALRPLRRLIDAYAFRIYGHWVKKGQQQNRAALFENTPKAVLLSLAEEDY

For the compound `CC[C@@H](CO)Nc1nc(NCc2ccccc2)c2ncn(C(C)C)c2n1`, the residual activity is 82% in experiment [1]; 93% in experiment [2]; 74% in [3]; 94% in [4]; 92% in experiment [5]; 80% in experiment [6] (ATP 20 µM). Further, the residual activity in experiment [6] (ATP 50 µM) amounted to 90%.

Regarding `COc1cc(OC)c(/C=C2\C(=O)Nc3ccccc32)c(OC)c1`, the residual activity in experiment [7] came out at 101%.

Regarding `Cc1ccc(NC(=O)c2cccc(N(C)C)c2)cc1NC(=O)c1ccc(O)cc1`, in [8], the residual activity worked out at 8%.

Take `CN(C)S(=O)(=O)c1ccc2c(c1)/C(=C/c1cc3c([nH]1)CCCC3)C(=O)N2`: the IC50 in experiment [9] turned out to be 100 nM. This lies in the sub-micromolar range.

`COc1ccc2c(c1)[nH]c1c(C)nccc12`: the residual activity in [10] was determined as 60%.

In the case of `NC(=O)c1ccc(-c2nc(-c3ccccn3)c(-c3ccc4c(c3)OCCO4)[nH]2)cc1`, the residual activity in experiment [11] and in experiment [12] was 107% in each case.

As for `CC(C)(C)n1nc(-c2cccc3ccccc23)c2c(N)ncnc21`, the residual activity in [9] (compound 1.0 µM) came to 20%.
